# Experimental data taken from patent US20220348878A1, “CELL PROLIFERATION INHIBITOR” (BOURBON CORPORATION, priority 2019, published 2022).
# Experiments:
# Format in all cases: cell-based
# Human fibroblast = assay: Culture test with medium exchange every three days (Example 2), cell count; settings: for Number of cells: Glutamic acid: 8 mM, average of three wells
# Protocol: As the medium, the DMEM basal medium was used.
# After cell culture, the cells were recovered using a 0.1% by weight trypsin/1 mM EDTA solution, and seeded on a 12-well plate (obtained from Corning Co., Ltd.), and cultured overnight at 37° C. in the presence of 5% CO2 using the above DMEM basal medium. […]
# Note that the number of cells is an average of the numbers of cell counts in three wells, and the counts is measured by the following method.
# (§1) After removing the culture supernatant of the cells by suction and washing the cells by using PBS, the cells were peeled off by using 0.1% trypsin/1 mM EDTA solution (FUJIFILM Wako Pure Chemical Corporation). The reaction of the releasing solution was stopped by adding the medium, and the cells were recovered. And then, the cell counts was conducted by using the Countess™ II Automated Cell Counter (Thermo Fisher Scientific).
# [1] = test system: Human mesenchymal stem cells; assay: Test for confirming cell proliferation inhibitory effect (Example 1), phase-contrast observation of cell state; settings: Day 9, no medium exchange; for Cell state: number of dead cells and cell proliferation: 1 mM, 5 mM or 8 mM glutamic acid
# Protocol: (§2) Human mesenchymal stem cells (manufactured by Lonza, Catalog No. PT-5006) were cultured in a cell culture dish (100-mm culture dish, obtained from SANPLATEC CO., LTD.) coated with 10 μg/ml Fibronectin (Promocell) at 37° C. in the presence of 5% CO2, and used. As the medium, the DMEM basal medium was used.
# (§3) After cell culture, the cells were recovered using a 0.1% by weight trypsin/1 mM EDTA solution, and seeded on a 12-well plate (obtained from Corning Co., Ltd.), and cultured overnight at 37° C. in the presence of 5% CO2 using the above DMEM basal medium.
# (§4) The DMEM basal medium was replaced with the desired cell maintenance medium, and the cells were cultured (“Day 0 after culture”). No medium exchange was performed during the culture period.
# (§5) Further, the same culture test as described above was conducted except that 1 mM, 5 mM or 8 mM of glutamic acid was added to the basal medium for cell culture.
# [2] = test system: Human mesenchymal stem cell; assay: Culture test with medium exchange every three days (Example 2), cell count; settings: for Number of cells: Glutamic acid: 8 mM, average of three wells
# Protocol: as §2, §3, §4
# The same culture test as in Example 1 was conducted except that the medium was exchanged every three days during the culture period.
# Tables 1 to 2 indicate the number of cells for each culture day. […] Note that the number of cells is an average of the numbers of cell counts in three wells, and the counts is measured by the following method.
# as §1
# [3] = test system: Human mesenchymal stem cell; assay: as above; settings: w/o Glc medium instead of w/Glc medium; Glutamic acid 8 mM; FIG. 3, Day 12
# Human fibroblasts = assay: Test for confirming cell proliferation inhibitory effect (Example 1), phase-contrast observation of cell state; settings: Day 9, no medium exchange; for Cell state: number of dead cells and cell proliferation: 1 mM, 5 mM or 8 mM glutamic acid
# Protocol: Human fibroblasts (Catalog No. CC-2511) were cultured in a gelatin-coated cell culture dish (100-mm culture dish, obtained from SANPLATEC CO., LTD.) at 37° C. in the presence of 5% CO2, and used. As the medium, the DMEM basal medium was used.
# as §3, §4, §5
# [4] = glucose-free DMEM basal medium (w/o Glc)
# [5] = xylose DMEM basal medium (w/Xy)
smiles,measurement,setting,value
"N[C@@H](CCC(=O)O)C(=O)O [Glutamic acid, glutamic acid]",Number of cells,"Human fibroblast; Medium: w/G1c, Day 0",0.07 ×10^5 cells/cm^2
same,Number of cells,"Human fibroblast; Medium: w/G1c, Day 6",0.56 ×10^5 cells/cm^2
same,Number of cells,"Human fibroblast; Medium: w/G1c, Day 12",1.46 ×10^5 cells/cm^2
same,Number of cells,"Human fibroblast; Medium: w/G1c, Day 18",1.72 ×10^5 cells/cm^2
same,Number of cells,"Human fibroblast; Medium: w/Xy, Day 0",0.07 ×10^5 cells/cm^2
same,Number of cells,"Human fibroblast; Medium: w/Xy, Day 6",0.37 ×10^5 cells/cm^2
same,Number of cells,"Human fibroblast; Medium: w/Xy, Day 12",1.13 ×10^5 cells/cm^2
same,Number of cells,"Human fibroblast; Medium: w/Xy, Day 18",1.28 ×10^5 cells/cm^2
same,Number of cells,"Human fibroblast; Medium: w/o G1c, Day 0",0.07 ×10^5 cells/cm^2
same,Number of cells,"Human fibroblast; Medium: w/o G1c, Day 6",0.27 ×10^5 cells/cm^2
same,Number of cells,"Human fibroblast; Medium: w/o G1c, Day 12",0.08 ×10^5 cells/cm^2
same,Cell proliferation inhibition compared with the control test with w/Glc medium,"Human fibroblast; w/Glc medium, Glutamic acid 8 mM, from Table 1",the cell proliferation was inhibited till 6 days after
same,Cell proliferation inhibitory effect,"Human fibroblast; w/Xy medium instead of w/Glc medium, Glutamic acid 8 mM, from Table 1","the cell proliferation inhibitory effect was remarkable, and it was possible to inhibit the cell proliferation for a longer period"
same,Number of cells and dead cells,"Human fibroblast; w/o Glc medium instead of w/Glc medium, Glutamic acid 8 mM, from Table 1","the number of cells after 12 days was remarkably less, and the dead cells occurred"
same,Cell state: number of dead cells and cell proliferation,[1]; [4],the number of dead cells decreased and cell proliferation was inhibited as the glutamic acid concentration increased
same,Dead cells observed,"[1]; w/Xy, glutamic acid concentration 5 to 8 mM",dead cells were hardly observed
same,Cell state: number of dead cells and cell proliferation,[1]; [5],the number of dead cells decreased and cell proliferation was inhibited as the glutamic acid concentration increased
same,Number of cells,"[2]; Medium: w/Glc, Day 0",0.356 ×10^4 cells/cm^2
same,Number of cells,"[2]; Medium: w/Glc, Day 3",1.12 ×10^4 cells/cm^2
same,Number of cells,"[2]; Medium: w/Glc, Day 6",2.96 ×10^4 cells/cm^2
same,Number of cells,"[2]; Medium: w/Glc, Day 9",3.23 ×10^4 cells/cm^2
same,Number of cells,"[2]; Medium: w/Glc, Day 12",3.75 ×10^4 cells/cm^2
same,Number of cells,"[2]; Medium: w/Glc, Day 15",4.46 ×10^4 cells/cm^2
same,Number of cells,"[2]; Medium: w/Glc, Day 18",5.37 ×10^4 cells/cm^2
same,Number of cells,"[2]; Medium: w/Xy, Day 0",0.356 ×10^4 cells/cm^2
same,Number of cells,"[2]; Medium: w/Xy, Day 3",0.855 ×10^4 cells/cm^2
same,Number of cells,"[2]; Medium: w/Xy, Day 6",0.998 ×10^4 cells/cm^2
same,Number of cells,"[2]; Medium: w/Xy, Day 9",1.65 ×10^4 cells/cm^2
same,Number of cells,"[2]; Medium: w/Xy, Day 12",1.87 ×10^4 cells/cm^2
same,Number of cells,"[2]; Medium: w/Xy, Day 15",2.77 ×10^4 cells/cm^2
same,Number of cells,"[2]; Medium: w/Xy, Day 18",3.90 ×10^4 cells/cm^2
same,Number of cells,"[2]; Medium: w/o Glc, Day 0",0.356 ×10^4 cells/cm^2
same,Number of cells,"[2]; Medium: w/o Glc, Day 3",0.591 ×10^4 cells/cm^2
same,Number of cells,"[2]; Medium: w/o Glc, Day 6",0.662 ×10^4 cells/cm^2
same,Number of cells,"[2]; Medium: w/o Glc, Day 9",1.06 ×10^4 cells/cm^2
same,Number of cells,"[2]; Medium: w/o Glc, Day 12",1.04 ×10^4 cells/cm^2
same,Number of cells,"[2]; Medium: w/o Glc, Day 15",1.50 ×10^4 cells/cm^2
same,Number of cells,"[2]; Medium: w/o Glc, Day 18",1.58 ×10^4 cells/cm^2
same,Cell proliferation inhibition compared with the control test with w/Glc medium,"[2]; w/Glc medium, Glutamic acid 8 mM, from Table 2",it was possible to inhibit the cell proliferation till 18 days after
same,Cell proliferation inhibitory effect,"[2]; w/Xy medium instead of w/Glc medium, Glutamic acid 8 mM, from Table 2",the cell proliferation inhibitory effect was remarkable
same,Condition of cells (whitening around cells),[3],"the ratio of whitening around cells ware large, and the conditions of cells deteriorated"
same,Cell state: number of dead cells and cell proliferation,Human fibroblasts; [4],the number of dead cells decreased and cell proliferation was inhibited as the glutamic acid concentration increased
same,Dead cells observed,"Human fibroblasts; w/Xy, glutamic acid concentration 1 to 8 mM",dead cells were hardly observed
same,Cell state: number of dead cells and cell proliferation,Human fibroblasts; [5],the number of dead cells decreased and cell proliferation was inhibited as the glutamic acid concentration increased
